Results from PubChem BioAssay AID1963981 (Molecular Pharmacology Branch, DTP, NCI, 2024).

Test system: 354836-022-R-J1-PDC multicell spheroid viability
Assay: Anticancer human tumor 354836-022-R-J1-PDC patient-derived head and neck squamous cell carcinoma cell line growth inhibition [PI3K]
Conditions: for IC50: curve of first compound; for viability, T/C: stronger effect = lower value; active = viability on the fitted dose curve at most 10% of control; inactive = the rest
In short: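 High-throughput combination screen: PI3K inhibitors crossed with targeted small molecules on complex spheroids of tumor cells, HUVEC and MSCs at 37 degrees C, 5% CO2. Top concentration was at or near clinical Cmax (otherwise 10 microM), with half-log decrements.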

[1] = second compound 0.0316 µM, first compound 0.0316 µM
[2] = second compound 0.0316 µM, first compound 0.1 µM
[3] = second compound 0.1 µM, first compound 0.0316 µM
[4] = second compound 0.1 µM, first compound 0.1 µM
[5] = second compound 0.316 µM, first compound 0.0316 µM
[6] = second compound 0.316 µM, first compound 0.1 µM
[7] = second compound 1 µM, first compound 0.0316 µM
[8] = second compound 1 µM, first compound 0.1 µM
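Note: spheroids exposed to agents for seven days before the viability read.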

Cn1ncnc1[C@H]1c2n[nH]c(=O)c3cc(F)cc(c23)N[C@@H]1c1ccc(F)cc1 + CC(Nc1ncnc2nc[nH]c12)c1cc2cccc(Cl)c2c(=O)n1-c1ccccc1
inactive: viability, T/C (second compound 0.0316 µM, first compound 0.000316 µM) 91.2% | viability, T/C (second compound 0.0316 µM, first compound 0.001 µM) 88.5% | viability, T/C (second compound 0.0316 µM, first compound 0.00316 µM) 85.4% | viability, T/C (second compound 0.0316 µM, first compound 0.01 µM) 108% | viability, T/C [1] 105% | viability, T/C [2] 106% | viability, T/C (second compound 0.1 µM, first compound 0.000316 µM) 102% | viability, T/C (second compound 0.1 µM, first compound 0.001 µM) 97.2% | viability, T/C (second compound 0.1 µM, first compound 0.00316 µM) 98.2% | viability, T/C (second compound 0.1 µM, first compound 0.01 µM) 86.4% | viability, T/C [3] 101% | viability, T/C [4] 83.1% | viability, T/C (second compound 0.316 µM, first compound 0.000316 µM) 100% | viability, T/C (second compound 0.316 µM, first compound 0.001 µM) 117% | viability, T/C (second compound 0.316 µM, first compound 0.00316 µM) 98.8% | viability, T/C (second compound 0.316 µM, first compound 0.01 µM) 104% | viability, T/C [5] 92.7% | viability, T/C [6] 88.6% | viability, T/C (second compound 1 µM, first compound 0.000316 µM) 110% | viability, T/C (second compound 1 µM, first compound 0.001 µM) 96.5% | viability, T/C (second compound 1 µM, first compound 0.00316 µM) 110% | viability, T/C (second compound 1 µM, first compound 0.01 µM) 96.2% | viability, T/C [7] 100% | viability, T/C [8] 79.8% | viability, T/C (second compound 3.16 µM, first compound 0.000316 µM) 108% | viability, T/C (second compound 3.16 µM, first compound 0.001 µM) 107% | viability, T/C (second compound 3.16 µM, first compound 0.00316 µM) 92.1% | viability, T/C (second compound 3.16 µM, first compound 0.01 µM) 96.7% | viability, T/C (second compound 3.16 µM, first compound 0.0316 µM) 99.6% | viability, T/C (second compound 3.16 µM, first compound 0.1 µM) 73.4% | viability, T/C (second compound 10 µM, first compound 0.000316 µM) 94.7% | viability, T/C (second compound 10 µM, first compound 0.001 µM) 87.1% | viability, T/C (second compound 10 µM, first compound 0.00316 µM) 85.8% | viability, T/C (second compound 10 µM, first compound 0.01 µM) 93.3% | viability, T/C (second compound 10 µM, first compound 0.0316 µM) 89.3% | viability, T/C (second compound 10 µM, first compound 0.1 µM) 65.2%
> 0.1 µM: IC50 (second compound 0.0316 µM) | IC50 (second compound 0.1 µM) | IC50 (second compound 0.316 µM) | IC50 (second compound 1 µM) | IC50 (second compound 3.16 µM) | IC50 (second compound 10 µM)

CC(C)NCC(C(=O)N1CCN(c2ncnc3c2C(C)CC3O)CC1)c1ccc(Cl)cc1 (centres undefined) + COc1c(OCCCN2CCOCC2)ccc2c3n(c(=NC(=O)c4cnc(N)nc4)nc12)CCN3
0.305 µM: IC50 (second compound 0.00316 µM)
0.227 µM: IC50 (second compound 0.01 µM)
active: viability, T/C (second compound 0.00316 µM, first compound 10 µM) 2.4% | viability, T/C (second compound 0.01 µM, first compound 10 µM) 2.96% | viability, T/C (second compound 0.0316 µM, first compound 3.16 µM) 7.83% | viability, T/C (second compound 0.0316 µM, first compound 10 µM) 2.13% | viability, T/C (second compound 0.1 µM, first compound 3.16 µM) 3.65% | viability, T/C (second compound 0.1 µM, first compound 10 µM) 1.29% | viability, T/C [6] 11.2% | viability, T/C (second compound 0.316 µM, first compound 0.316 µM) 5.73% | viability, T/C (second compound 0.316 µM, first compound 1 µM) 3.46% | viability, T/C (second compound 0.316 µM, first compound 3.16 µM) 1.76% | viability, T/C (second compound 0.316 µM, first compound 10 µM) 0.91% | viability, T/C [7] 1.35% | viability, T/C [8] 1.54% | viability, T/C (second compound 1 µM, first compound 0.316 µM) 1.33% | viability, T/C (second compound 1 µM, first compound 1 µM) 1.12% | viability, T/C (second compound 1 µM, first compound 3.16 µM) 1.14% | viability, T/C (second compound 1 µM, first compound 10 µM) 0.88%
inactive: viability, T/C (second compound 0.00316 µM, first compound 0.0316 µM) 90.8% | viability, T/C (second compound 0.00316 µM, first compound 0.1 µM) 68.1% | viability, T/C (second compound 0.00316 µM, first compound 0.316 µM) 52.3% | viability, T/C (second compound 0.00316 µM, first compound 1 µM) 28.5% | viability, T/C (second compound 0.00316 µM, first compound 3.16 µM) 9.34% | viability, T/C (second compound 0.01 µM, first compound 0.0316 µM) 87.6% | viability, T/C (second compound 0.01 µM, first compound 0.1 µM) 66.5% | viability, T/C (second compound 0.01 µM, first compound 0.316 µM) 42.9% | viability, T/C (second compound 0.01 µM, first compound 1 µM) 24.8% | viability, T/C (second compound 0.01 µM, first compound 3.16 µM) 9.85% | viability, T/C [1] 68.8% | viability, T/C [2] 52.7% | viability, T/C (second compound 0.0316 µM, first compound 0.316 µM) 34.5% | viability, T/C (second compound 0.0316 µM, first compound 1 µM) 19.4% | viability, T/C [3] 43% | viability, T/C [4] 39.6% | viability, T/C (second compound 0.1 µM, first compound 0.316 µM) 26.3% | viability, T/C (second compound 0.1 µM, first compound 1 µM) 13.3% | viability, T/C [5] 11.6%
0.119 µM: IC50 (second compound 0.0316 µM)
< 0.0316 µM: IC50 (second compound 0.1 µM) | IC50 (second compound 0.316 µM) | IC50 (second compound 1 µM)
